According to paper PMC3702004, “Comparison of Intake and Systemic Relative Effect Potencies of Dioxin-like Compounds in Female Mice after a Single Oral Dose” (Environmental Health Perspectives, 2013):
Where two headings read alike, the source gives them in different places.

Columns and labels:
[1] = Compound analysis: liver, adipose and plasma concentrations 3 days after a single oral dose; assay type: in vivo, female C57BL/6 mice; settings: for liver:adipose ratio (hepatic sequestration criterion 0.3) / concentration at 3 days / Adipose % dose / g tissue / Adipose concentration / Liver % dose / g tissue / Liver concentration / Plasma % dose / g tissue / Plasma concentration: 3 days after single oral dose; for liver:adipose ratio (hepatic sequestration criterion 0.3): Table 1 doses; for Liver:adipose ratio: based on ng/g tissue, day 3; for concentration at 3 days: female, C57BL/6, mouse, in vivo, po
Procedure: (§1) Animals. Eight-week-old female C57BL/6 mice (Harlan laboratories, Venray, the Netherlands) were randomly assigned to treatment groups (six animals per group) and allowed to acclimate for 1.5 weeks. The animals were housed in groups in standard cages and conditions (23 ± 2°C, 50–60% relative humidity, 12-hr dark/light cycle) with free access to food and water. Mice received a single dose of test compound by oral gavage at a dosing volume of 10 mL/kg body weight (BW). Mice treated with corn oil vehicle (10 mL/kg BW) served as controls. For each congener, five different doses were administered, ranging from 0.5–100 μg/kg BW (TCDD) to 5,000–500,000 µg/kg BW (PCB-153). Detailed information on doses is provided in Supplemental Material, Table S1 (http://dx.doi.org/10.1289/ehp.1206336). On day 3 after dosing, animals were euthanized by CO2/O2 asphyxiation, and blood was immediately collected from the abdominal aorta. The liver, thymus, spleen, and adipose tissue were removed, weighed (liver, thymus, and spleen), snap frozen, and stored at –80°C. All animal treatments were performed with permission of the Animal Ethical Committee (DEC Utrecht) and performed according to the [Law on Animal Experiments (1977)]. Animals were treated humanely and with regard for alleviation of suffering.
Compound analysis. Adipose and liver tissues samples were homogenized in Na2SO4, followed by extraction and clean-up in one step, and then eluted with 200 mL 1:1 hexane:dichloromethane on an open column packed with 40% wt/wt H2SO4-impregnated silica and KOH-silica. Blood plasma samples were extracted on an open column using Chem-Elut (Agilent Technologies, Santa Clara, CA, USA) and then NaCl eluted with 75 mL 3:2 hexane:2-propanol. Clean-up was performed using a miniaturized silica column (as described above), and samples were eluted using 30 mL hexane. Because the samples typically contained high levels of the analytes, only a small fraction was evaporated and analyzed. Prior to evaporation, we spiked a fraction of the samples with ^13C-labeled standards. We checked potential loss of analytes during extraction and clean-up by reextracting the samples using the identical protocol used for the samples. […] Tetradecane was added prior to evaporation. Sample analysis followed the U.S. Environmental Protection Agency Method 1613 ([U.S. Environmental Protection Agency 1994]) using single ion monitoring mode on an Agilent 6809N gas chromatograph (Agilent Technologies) coupled with a Micromass Ultima Autospec Ultra high-resolution mass spectrometer (HRMS; Waters Corp., Milford, MA, USA). Compounds were separated on a 60 m × 0.25 mm DB5-MS column ([…]; J&W Scientific, Folsom, CA, USA). The HRMS was operated with electron impact ionization with electron energy of 35 eV and an ion source temperature of 250°C. To reduce the number of analyses, samples were pooled before clean-up. […] This method was used because full congener–specific separation could be achieved on the high-resolution GC–HRMS. For lipid determination, samples were evaporated to dryness after the extraction step, and the amount of lipids was determined gravimetrically. Concentrations were calculated based on lipid weight and wet weight. The analysis of samples for the PCB-118 5,000 μg/kg BW dose failed during the procedure; thus analysis for this group could not be completed.
(§2) Plasma and PBL isolation. Blood from two mice was pooled (total volume of approximately 1.4 mL); plasma and PBLs were then isolated using Ficoll Paque gradient (GE Healthcare Europe, Diegem, Belgium). Plasma samples were stored at –80°C until compound analysis. Isolated lymphocytes were lysed with RLT buffer (QIAGEN, Venlo, the Netherlands) as described in the QIAGEN RNAeasy kit protocol and stored at –80°C until use.

[2] = toxic equivalency factor relative to TCDD; ref Van den Berg et al. 2006; cited from earlier work
[3] = system: Cyp1b1 mRNA in PBLs; assay: Cyp1b1 gene expression in peripheral blood lymphocytes; assay type: in vivo, female C57BL/6 mice; settings: for BMR20TCDD PBLs Cyp1b1 mRNA: 3 days after single oral dose; for REP PBLs Cyp1b1 mRNA: relative to TCDD; for Effect on Cyp1b1 mRNA in PBLs: single oral dose, day 3
Procedure: as §1, §2
RNA isolation and quantitative real-time polymerase chain reaction (PCR). Total RNA was isolated from liver and PBLs using a QIAGEN RNeasy kit (QIAGEN). Purity and concentration of the isolated RNA was determined by measuring the absorbance ratio at 260/280 nm and 230/260 nm with a Nanodrop 2000 spectrophotometer (Thermo Scientific, Asheville, NC, USA). RNA was reverse transcribed to complementary DNA (cDNA) using the iScript cDNA synthesis Kit (Bio-Rad, Veenendaal, the Netherlands). Quantitative real-time PCR analyses were performed using the iQ Real-Time PCR Detection System with SYBR green (Bio-Rad). Amplification reactions were set up with […] containing 12.5 μL iQ SYBR Green Supermix (Bio-rad), 0.5 μL distilled H2O, 1 μL (10 μM) forward primer, 1 μL (10 μM) reverse primer, and 10 μL first strand cDNA (10X diluted). Primer sequences were as follows: Cyp1a1: forward-5´-GGTTAACCATGACCGGGAACT-3´ and reverse-5´-TGCCCAAACCAAAGAGAGTGA-3´ ([Schulz et al. 2012]); Cyp1a2: forward-5´-ACATTCCCAAGGAGCGCTGTATCT-3´ and reverse-5´-GTCGATGGCCGAGTTGTTATTGGT-3´ ([Flaveny et al. 2010]); Cyp1b1: forward-5´-GTGGCTGCTCATCCTCTTTACC-3´ and reverse-5´-CCCACAACCTGGTCCAACTC-3´ ([Berge et al. 2004]); β-actin: forward-5´-ATGCTCCCCGGGCTGTAT-3´ and reverse-5´-CATAGGAGTCCTTCTGACCCATTC-3´ ([Schulz et al. 2012]). All primers were run through the National Center for Biotechnology Information Primer-BLAST database (http://www.ncbi.nlm.nih.gov/tools/primer-blast/) to confirm specificity and validate for optimal annealing temperature (60°C for all primers) and efficiency. The efficiency of all primer pairs was 98–102% (tested at 60°C). The following program was used for denaturation and amplification of cDNA: 3 min at 95°C, followed by 40 cycles of 15 sec at 95°C and 45 sec at 60°C. Gene expression for each sample was expressed as threshold cycle (Ct), normalized to the reference gene β-actin (ΔCt). We calculated fold induction relative to the control group.
Data analysis. We obtained concentration–response curves using a sigmoidal dose–response nonlinear regression curve fit with variable slope (GraphPad Prism 6.01; GraphPad Software Inc., San Diego, CA, USA): […]

[4] = 0.5 µg/kg bw, oral dose 0.5 µg/kg bw, read-out: Adipose concentration
[5] = 0.5 µg/kg bw, oral dose 0.5 µg/kg bw, read-out: Liver concentration
[6] = 2.5 µg/kg bw, oral dose 2.5 µg/kg bw, read-out: Adipose concentration
[7] = 2.5 µg/kg bw, oral dose 2.5 µg/kg bw, read-out: Liver concentration
[8] = 10 µg/kg bw, oral dose 10 µg/kg bw, read-out: Adipose concentration
[9] = 10 µg/kg bw, oral dose 10 µg/kg bw, read-out: Liver concentration
[10] = 10 µg/kg bw, oral dose 10 µg/kg bw, read-out: Plasma concentration
[11] = 25 µg/kg bw, oral dose 25 µg/kg bw, read-out: Plasma concentration
[12] = 100 µg/kg bw, oral dose 100 µg/kg bw, read-out: Plasma concentration
[13] = dose metric Adm dose (µg/kg BW)
[14] = dose metric Syst plasma (ng/g lipid)

Clc1cc2c(cc1Cl)Oc1c(cc(Cl)c(Cl)c1Cl)O2 [PeCDD, 1,2,3,7,8-pentachlorodibenzodioxin]
liver:adipose ratio (hepatic sequestration criterion 0.3) [1]: > 0.3 | Liver:adipose ratio ([1]; dose 0.5 μg/kg BW): 4.4±0.9 | Liver:adipose ratio ([1]; dose 2.5 μg/kg BW): 7.0±1.1 | Liver:adipose ratio ([1]; dose 10 μg/kg BW): 6.7±1.4 | concentration at 3 days [1, 4]: 0.9 ± 0.2 ng/g | concentration at 3 days [1, 5]: 4 ± 0.7 ng/g | concentration at 3 days [1, 6]: 3.8 ± 0.7 ng/g | concentration at 3 days [1, 7]: 27 ± 6 ng/g | concentration at 3 days [1, 8]: 16 ± 5 ng/g | concentration at 3 days [1, 9]: 103 ± 23 ng/g | concentration at 3 days [1, 10]: 0.032 ng/g | concentration at 3 days [1, 11]: 0.052 ng/g | concentration at 3 days [1, 12]: 0.298 ng/g | Adipose % dose / g tissue ([1]; oral dose 0.5 µg/kg bw): 9.3 % dose / g tissue | Adipose concentration ([1]; oral dose 0.5 µg/kg bw): 1.1 ± 0.2 ng/g lipid | Liver % dose / g tissue ([1]; oral dose 0.5 µg/kg bw): 40 % dose / g tissue | Liver concentration ([1]; oral dose 0.5 µg/kg bw): 85 ± 14 ng/g lipid | Plasma % dose / g tissue ([1]; oral dose 0.5 µg/kg bw): 0.037 % dose / g tissue | Adipose % dose / g tissue ([1]; oral dose 2.5 µg/kg bw): 7.7 % dose / g tissue | Adipose concentration ([1]; oral dose 2.5 µg/kg bw): 4.3 ± 0.8 ng/g lipid | Liver % dose / g tissue ([1]; oral dose 2.5 µg/kg bw): 54 % dose / g tissue | Liver concentration ([1]; oral dose 2.5 µg/kg bw): 446 ± 96 ng/g lipid | Plasma % dose / g tissue ([1]; oral dose 2.5 µg/kg bw): 0.024 % dose / g tissue | Adipose % dose / g tissue ([1]; oral dose 10 µg/kg bw): 8.0 % dose / g tissue | Adipose concentration ([1]; oral dose 10 µg/kg bw): 19 ± 6 ng/g lipid | Liver % dose / g tissue ([1]; oral dose 10 µg/kg bw): 51 % dose / g tissue | Liver concentration ([1]; oral dose 10 µg/kg bw): 1669 ± 378 ng/g lipid | Plasma % dose / g tissue ([1]; oral dose 10 µg/kg bw): 0.016 % dose / g tissue | Plasma concentration ([1]; oral dose 10 µg/kg bw): 19 ± 7 ng/g lipid | Plasma % dose / g tissue ([1]; oral dose 25 µg/kg bw): 0.010 % dose / g tissue | Plasma concentration ([1]; oral dose 25 µg/kg bw): 30 ± 2 ng/g lipid | Plasma % dose / g tissue ([1]; oral dose 100 µg/kg bw): 0.015 % dose / g tissue | Plasma concentration ([1]; oral dose 100 µg/kg bw): 157 ± 21 ng/g lipid | WHO-TEF [2]: 1 | BMR20TCDD PBLs Cyp1b1 mRNA ([3]; dose metric Adm dose): 51.8 µg/kg BW | BMR20TCDD PBLs Cyp1b1 mRNA ([3]; dose metric Syst plasma): 63.8 ng/g lipid | REP PBLs Cyp1b1 mRNA [3, 13]: 0.4 | REP PBLs Cyp1b1 mRNA [3, 14]: 0.8 | Effect on Cyp1b1 mRNA in PBLs [3]: dose-dependently induced

Clc1cc2c(cc1Cl)Oc1cc(Cl)c(Cl)cc1O2 [TCDD, 2,3,7,8-tetrachlorodibenzodioxin, reference compound]
liver:adipose ratio (hepatic sequestration criterion 0.3) [1]: > 0.3 | Liver:adipose ratio ([1]; dose 0.5 μg/kg BW): 1.8±0.2 | Liver:adipose ratio ([1]; dose 2.5 μg/kg BW): 2.9±0.5 | Liver:adipose ratio ([1]; dose 10 μg/kg BW): 4.2±0.7 | concentration at 3 days [1, 4]: 1.8 ± 0.4 ng/g | concentration at 3 days [1, 5]: 3.3 ± 0.6 ng/g | concentration at 3 days [1, 6]: 6.9 ± 1.5 ng/g | concentration at 3 days [1, 7]: 20 ± 6 ng/g | concentration at 3 days [1, 8]: 21 ± 3 ng/g | concentration at 3 days [1, 9]: 85 ± 13 ng/g | concentration at 3 days [1, 10]: 0.053 ng/g | concentration at 3 days [1, 11]: 0.108 ng/g | concentration at 3 days [1, 12]: 0.432 ng/g | Adipose % dose / g tissue ([1]; oral dose 0.5 µg/kg bw): 18 % dose / g tissue | Adipose concentration ([1]; oral dose 0.5 µg/kg bw): 2.1 ± 0.5 ng/g lipid | Liver % dose / g tissue ([1]; oral dose 0.5 µg/kg bw): 33 % dose / g tissue | Liver concentration ([1]; oral dose 0.5 µg/kg bw): 62 ± 12 ng/g lipid | Plasma % dose / g tissue ([1]; oral dose 0.5 µg/kg bw): 0.040 % dose / g tissue | Adipose % dose / g tissue ([1]; oral dose 2.5 µg/kg bw): 14 % dose / g tissue | Adipose concentration ([1]; oral dose 2.5 µg/kg bw): 7.6 ± 1.7 ng/g lipid | Liver % dose / g tissue ([1]; oral dose 2.5 µg/kg bw): 40 % dose / g tissue | Liver concentration ([1]; oral dose 2.5 µg/kg bw): 277 ± 83 ng/g lipid | Plasma % dose / g tissue ([1]; oral dose 2.5 µg/kg bw): 0.027 % dose / g tissue | Adipose % dose / g tissue ([1]; oral dose 10 µg/kg bw): 10 % dose / g tissue | Adipose concentration ([1]; oral dose 10 µg/kg bw): 24 ± 4 ng/g lipid | Liver % dose / g tissue ([1]; oral dose 10 µg/kg bw): 43 % dose / g tissue | Liver concentration ([1]; oral dose 10 µg/kg bw): 1152 ± 176 ng/g lipid | Plasma % dose / g tissue ([1]; oral dose 10 µg/kg bw): 0.027 % dose / g tissue | Plasma concentration ([1]; oral dose 10 µg/kg bw): 35 ± 6 ng/g lipid | Plasma % dose / g tissue ([1]; oral dose 25 µg/kg bw): 0.022 % dose / g tissue | Plasma concentration ([1]; oral dose 25 µg/kg bw): 60 ± 3 ng/g lipid | Plasma % dose / g tissue ([1]; oral dose 100 µg/kg bw): 0.022 % dose / g tissue | Plasma concentration ([1]; oral dose 100 µg/kg bw): 240 ± 30 ng/g lipid | WHO-TEF [2]: 1 | BMR20TCDD PBLs Cyp1b1 mRNA ([3]; dose metric Adm dose): 20.9 µg/kg BW | BMR20TCDD PBLs Cyp1b1 mRNA ([3]; dose metric Syst plasma): 53.5 ng/g lipid | REP PBLs Cyp1b1 mRNA [3, 13]: 1 | REP PBLs Cyp1b1 mRNA [3, 14]: 1 | Effect on Cyp1b1 mRNA in PBLs [3]: dose-dependently induced
